Assay results published in ChEMBL document CHEMBL3272260, “Metabolic and photochemical hydroxylation of 5-nitro-2-furancarboxaldehyde derivatives” (J Med Chem, 1976).

Tests used:
[1] = Half life of the compound under in-vacuo condition; type: physicochemical
[2] = Half life of the compound under atmospheric pressure condition; type: physicochemical
[3] = Chemical stability of the compound; type: physicochemical
[4] = Drug metabolism in rat urine treated with nitrofurantoin at 100 mg/kg, po measured up to 6 hrs by UV-spectroscopic analysis; type: ADME, organism-based; design: dose 100 mg/kg, route oral; conditions: in vivo
[5] = Drug metabolism in rat urine treated with nitrofurantoin at 100 mg/kg, po measured up to 6 hrs by NMR-spectroscopic analysis; type: ADME, organism-based; design: dose 100 mg/kg, route oral; conditions: in vivo
[6] = Drug metabolism in rat urine treated with nitrofurantoin at 100 mg/kg, po measured up to 6 hrs by IR-spectroscopic analysis; type: ADME, organism-based; design: dose 100 mg/kg, route oral; conditions: in vivo
[7] = Dissociation constant, pKa of the compound by potentiometric titration analysis; type: physicochemical
[8] = Half life of the compound in 0.1% aqueous solution; type: physicochemical

O.O=C1OCCN1/N=C/c1cc(O)c([N+](=O)[O-])o1
half-life [1]: > 26 days
half-life [2]: 5 days

O=C1C=C(/C=N/N2CCOC2=O)OC1=[N+]([O-])[O-].[K+]
Stability [3]: Stable

O.O=C1CN(/N=C/C2=CC(=O)C(=[N+]([O-])[O-])O2)C(=O)N1.[K+]
Drug metabolism [4]: metabolite_detected
Drug metabolism [5]: metabolite_detected
Stability [3]: Stable
Drug metabolism [6]: metabolite_detected

O.O.O=C1OCCN1/N=C/c1cc(O)c([N+](=O)[O-])o1
pKa [7]: 2.7
half-life at 0.1 % [8]: 2880 min
